Earlier results in patent US20190201417A1, “TOPICAL STEROID THERAPY FOR MUCOSAL AND DERMATOLOGICAL INFLAMMATORY DISEASE” (CINRX PHARMA, LLC, priority 2016, published 2019).
Where two headings read alike, the source gives them in different places.

Tests used:
Caco-2 cell monolayers = settings: coadministration with chitosan glutamate
[1] = rats, nasal application with chitosan glutamate
[2] = sheep, nasal application with chitosan glutamate

Compound: 9-desglycinamide-8-arginine vasopressin [DGAVP]
- transport of the peptide drug (Caco-2 cell monolayers): increased markedly

Compound: CCNC(=O)[C@@H]1CCCN1C(=O)[C@H](CCCNC(=N)N)NC(=O)[C@H](CC(C)C)NC(=O)[C@@H](COC(C)(C)C)NC(=O)[C@H](Cc1ccc(O)cc1)NC(=O)[C@H](CO)NC(=O)[C@H](Cc1c[nH]c2ccccc12)NC(=O)[C@H](Cc1cnc[nH]1)NC(=O)[C@@H]1CCC(=O)N1 [buserelin]
- absolute bioavailability of buserelin (intraduodenal application with chitosan hydrochloride in a gel formulation): 5.1±1.5%
- absolute bioavailability of buserelin (intraduodenal application, baseline without chitosan hydrochloride): 0.1±0.1%

Compound: insulin
- blood glucose levels [1]: significant reduction
- blood glucose levels [2]: significant reduction
